“And” between values parts separate entries of the source, which are not always exact repeats. Identical values can stand only once.
How the values were obtained:
PC3 cells = experiment: MTT assay, PC3; type: cell-based; details: Homo sapiens, PC-3, 72 h, 50% growth inhibition
Method: (§1) As a first step in assessing their cytotoxic properties, all thioureas of the series were assayed against four human carcinoma cell lines, such as SW480 (primary colon cancer), SW620 (metastatic colon cancer), PC3 (metastatic prostate cancer), and K-562 (chronic myelogenous leukemia), as well as against the normal cell line HaCaT (immortalized human keratinocytes). Table 1 lists the compound concentrations that produced 50% of growth inhibition (IC50, μM), generated by the MTT method, in comparison with two commonly used chemotherapeutic agents, doxorubicin and cisplatin.
(§2) The human primary (SW480), metastatic (SW620) colon cancer, metastatic prostate cancer (PC3), chronic myelogenous leukemia (K-562), and human immortal keratinocyte (HaCaT) cell lines were purchased from the American Type Culture Collection (ATCC, Rockville, MD, USA). The cells were cultured in medium according to protocols (MEM for SW480 and SW620, RPMI 1640 for PC3 and K-562, and DMEM for HaCaT cells), supplemented with 10% FBS, penicillin (100 U/mL) and streptomycin (100 μg/mL), and cultured in a 37 °C/5% CO2 humidified incubator. The cells were cultured until appropriate confluence was achieved (80–90%). Next, they were harvested by treatment with 0.25% trypsin (Gibco Life Technologies, Waltham, MA, USA) excluding the non-adherent K-562 cell line and used for studies.
(§3) Cells without the studied compounds in medium were used as a control.
(§4) The cell viability was assessed by determination of MTT salt [3-(4,5-dimethylthiazol-2-yl)-2,5-diphenyltetrazoliumbromide] conversion by mitochondrial dehydrogenase. The MTT assay was performed as previously described. Alternatively, non-adherent leukemic cells were centrifuged in a microplate centrifuge (400× g, 5 min) during the collection stages. Experiments were repeated three times. Cell viability was presented as a percent of MTT reduction in the treated cells versus the control cells. The number of viable cells cultured without the studied compounds was assumed as 100%. A decreased relative MTT level indicated decreased cell viability. Thiourea compounds with the highest cytotoxic potential assessed by MTT determination (with the lowest IC50) were chosen for subsequent assessments of cytotoxicity mechanisms.

K-562 cells = experiment: Annexin V-FITC/PI flow cytometry, K-562; type: cell-based, human; details: K-562, 72 h, IC50 concentration
Method: (§5) To estimate the mechanism of anticancer activity of the selected compounds 1–3, 8, and 9, their effect on both early and late apoptosis was evaluated by flow cytometry analysis. […] Additionally, visible late apoptosis-inducing properties in these cell lines were denoted for the compound 9 (47% ± 3.0%), which was twice as strong towards the colon tumor cells mentioned above. The apoptotic properties of analogs 3 and 8 in K-562 cells varied from 30% ± 1.6% to 33% ± 2.3%. […] Whereas the apoptosis-generating influence of derivatives 2 and 3 on normal keratinocytes was higher (29% and 23%), their selectivity measured by MTT methods is favorable. The obtained results are in agreement with the IC50 values assigned to pathological cancer cell lines. The cells were cultured and harvested under the conditions described in Section 3.2.1. […] The effect of these compounds on the process of early and late apoptosis and necrosis was determined as described previously by dual staining with Annexin V:FITC and propidium iodide, according to the manufacturer’s protocol (Becton Dickinson). The cells that were Annexin V:FITC positive and PI negative were identified as early apoptotic, and Annexin V:FITC and PI positive as late apoptotic or necrotic.

IL-6 level, PC3 cells = experiment: IL-6 level ELISA, PC3; type: cell-based, human; details: PC3, 72 h; for IL-6 Concentration: compound at IC50 concentration, ELISA; for reduction of IL-6 level: IC50 concentration, vs control
Method: Because of the low secretion of IL-6 by leukemic cells compared to solid tumors, and in addition to the lack of IL-6 receptors in K-562 cells, studies of the effect of derivatives 1–3, 8, and 9 on the inhibition of IL-6 release were carried out on primary and secondary solid tumor cells (SW480, SW620, and PC3). A remarkable inhibition of the IL-6 level was denoted for both colon cancer cell lines. Compound 2, identified as the strongest inhibitor, reduced the interleukin level by 54% (in SW480 cells) and 63% (SW620 cells). A significant effect was also observed in these cells for its structural isomer 3 (39% and 23% of inhibition, respectively). Additionally, compound 3 considerably affected the IL-6 level produced by PC3 cells, and reduced it by 33%. Similarly, the treatment with derivative 1 was effective for both colon cancer cells. In its presence, IL-6 release decreased by 28–36%, as compared to controls. For monosubstituted derivatives 8 and 9, the observed IL-6-reducing influence was weaker. They both inhibited IL-6 secretion in SW480 and SW620 cell lines by 25–32%. In contrast to compound 9, thiourea 8 additionally diminished the cytokine level in PC3 cells by 26%.
The IL-6 concentration in all studied cancer cells and normal HaCaT cell lines was measured by an ELISA kit (Diaclon SAS Besancon CEDEX, Besançon, France). […] IL-6 in cell culture supernatant was measured using the enzyme-linked immunosorbent assay in accordance with the manufacturer’s protocol.

SW480 cells = experiment: Trypan blue assay, SW480; type: cell-based, human; details: SW480, 72 h; for Cell Number × 10^5 / Viability (%): compound at IC50 concentration
Method: In order to estimate the tumor and normal cell population density and their viability after treatment with compounds 1–3, 8, and 9, the trypan blue dye exclusion assay was performed. The live cell number of all cancerous cells incubated for 72 h with the studied thioureas was considerably lower in comparison with the controls (Table 2; Figure S1A). The highest reduction in cell amount was denoted for both colon SW480 and SW620 cells treated with the dichlorophenyl derivative 2, and it accounted for 93%. […] Similarly, a noticeable decline in both colon cancer cell populations was observed after treatment with the ortho-substituted compound 8. The number of live cells equaled 12% and 18%, respectively, as compared to controls. This thiourea also led to a reduction of PC3 cells of 38%, and leukemia K-562 cell lines of 27%. The number of SW620 and PC3 cells decreased by 72% and 63% in the presence of para-substituted compound 9. However, the reducing influence of this thiourea on the number of other cancerous cells was at the level of 21–32%. […] A significant effect on the other studied pathological cells was also noticed and accounted for 32–46%. Furthermore, the derivative 3 reduced the amount of live cancer cells by 32–59%, of which its decreasing impact on colon cancer cells was the greatest.
The live cell count was assessed by the trypan blue exclusion dye assay using an automated cell counter (CountessTM Invitrogen, Waltham, MA, USA). Untreated cells were used as the control.

HaCaT cells [1] = experiment: MTT assay, HaCaT normal cells; type: cell-based, human; details: Homo sapiens, HaCaT, 72 h
Method: as §1, §2, §3, §4

[2] = system: SW480, SW620, PC3, K-562 cells; experiment: MTT assay, summary over cancer cell lines; type: cell-based; details: Homo sapiens, 72 h, depending on the tumor line, read-out: IC50 (range or bound over cancer cell lines)
Method: as §1, §3, §4

HaCaT cells [3] = experiment: Annexin V-FITC/PI flow cytometry, HaCaT; type: cell-based, human; details: 72 h, IC50 concentration, Annexin V-FITC/PI
Method: as §5

| Compound | IC50 (PC3 cells) [µM] | IC50 [2] [µM] | melting point [°C] | cells in late apoptosis (K-562 cells) | IL-6 Concentration (IL-6 level, PC3 cells) [pg/mL] | Cell Number × 10^5 (SW480 cells) | Viability (%) (SW480 cells) | IC50 (HaCaT cells [1]) [µM] | reduction of IL-6 level (IL-6 level, PC3 cells) [%] | number of live cells as compared to controls (SW480 cells; IC50 concentration) [%] | cells in late apoptosis (HaCaT cells [3]) [%] | reduction in live cell number (SW480 cells; IC50 concentration, vs control) [%] |
| --- | --- | --- | --- | --- | --- | --- | --- | --- | --- | --- | --- | --- |
| Fc1ccc(NC(=S)Nc2cccc(C(F)(F)F)c2)cc1Cl [Compound 1, 1-(3-chloro-4-fluorophenyl)-3-[3-(trifluoromethyl)phenyl]thiourea] | 53.6 ± 2.94 | ≤ 10 |  | 74% ± 3.8% | 9.6 ± 0.02 | 2.0 ± 0.30 × 10^5 | 69 ± 1.30 | 43.6 ± 4.22 |  |  |  |  |
| FC(F)(F)c1cccc(NC(=S)Nc2ccc(Cl)c(Cl)c2)c1 [Compound 2, 1-(3,4-dichlorophenyl)-3-[3-(trifluoromethyl)phenyl]thiourea] | 31.7 ± 2.07 |  |  | 73% and 73% ± 2.0% | 9.1 ± 0.04 | 0.3 ± 0.35 × 10^5 | 45 ± 2.40 | 24.7 ± 0.05 |  |  | 29 | 93 |

Now from value to compound, other results behind:

| IC50 (PC3 cells) [µM] | IC50 [2] [µM] | melting point [°C] | Compound | cells in late apoptosis (K-562 cells) | IL-6 Concentration (IL-6 level, PC3 cells) [pg/mL] | Cell Number × 10^5 (SW480 cells) | Viability (%) (SW480 cells) | IC50 (HaCaT cells [1]) [µM] | reduction of IL-6 level (IL-6 level, PC3 cells) [%] | number of live cells as compared to controls (SW480 cells; IC50 concentration) [%] | cells in late apoptosis (HaCaT cells [3]) [%] | reduction in live cell number (SW480 cells; IC50 concentration, vs control) [%] |
| --- | --- | --- | --- | --- | --- | --- | --- | --- | --- | --- | --- | --- |
| 22.6 ± 1.25 | ≤ 10 |  | FC(F)(F)c1cccc(NC(=S)Nc2ccc(Cl)cc2)c1 [Compound 9, 1-(4-chlorophenyl)-3-[3-(trifluoromethyl)phenyl]thiourea] | 47% ± 3.0% | 9.9 ± 0.03 | 2.5 ± 0.12 × 10^5 | 72 ± 2.25 | 71.5 ± 3.08 |  |  |  |  |
| 6.9 ± 1.64 |  | 134 to 136 | FC(F)(F)c1ccc(NC(=S)Nc2cccc(C(F)(F)F)c2)cc1 [Compound 8, 1-[3-(trifluoromethyl)phenyl]-3-[4-(trifluoromethyl)phenyl]thiourea] |  | 8.1 ± 0.08 | 0.4 ± 0.15 × 10^5 | 90 ± 2.30 | 41.3 ± 0.17 | 26 | 12 |  |  |
| 13.7 ± 7.04 | ≤ 10 |  | FC(F)(F)c1cccc(NC(S)=Nc2ccc(Cl)cc2Cl)c1 [Compound 3, 1-(2,4-dichlorophenyl)-3-[3-(trifluoromethyl)phenyl]thiourea] |  | 7.3 ± 0.06 | 1.5 ± 0.10 × 10^5 | 90 ± 1.30 | 52.1 ± 0.95 | 33 |  | 23 |  |

Reference: article PMC8623398, “Investigation of the Mechanisms of Cytotoxic Activity of 1,3-Disubstituted Thiourea Derivatives” (Pharmaceuticals, 2021)
